From article PMC6707142, “Orthogonal monoterpenoid biosynthesis in yeast constructed on an isomeric substrate” (Nature Communications, 2019)

How the values were obtained:
[1] = tested on: T1, SeCamS; assay: GC-MS of hexane-extracted monoterpene products; format: biochemical, Solanum elaeagnifolium; conditions: 20 mM MOPS pH 7.0, 20 mM MgCl2, 0.02 mM MnCl2, 30 °C, 1 h; read-out: KM^app
T1 construct: 6xHis-tagged, E. coli BL21(DE3), Ni-NTA purified
From the text: GC-MS of hexane-extracted monoterpene products on SeCamS

[2] = target: T2, SpSabS (Salvia pomifera, UniProt A6XH06); assay: GC-MS product analysis in vitro; format: biochemical; conditions: 20 mM MOPS pH 7.0, 20 mM MgCl2, 0.02 mM MnCl2, 30 °C, 1 h
T2 construct: gene SabS1; 6xHis-tagged, E. coli BL21(DE3), Ni-NTA purified
T2 sequence (A6XH06 29-581): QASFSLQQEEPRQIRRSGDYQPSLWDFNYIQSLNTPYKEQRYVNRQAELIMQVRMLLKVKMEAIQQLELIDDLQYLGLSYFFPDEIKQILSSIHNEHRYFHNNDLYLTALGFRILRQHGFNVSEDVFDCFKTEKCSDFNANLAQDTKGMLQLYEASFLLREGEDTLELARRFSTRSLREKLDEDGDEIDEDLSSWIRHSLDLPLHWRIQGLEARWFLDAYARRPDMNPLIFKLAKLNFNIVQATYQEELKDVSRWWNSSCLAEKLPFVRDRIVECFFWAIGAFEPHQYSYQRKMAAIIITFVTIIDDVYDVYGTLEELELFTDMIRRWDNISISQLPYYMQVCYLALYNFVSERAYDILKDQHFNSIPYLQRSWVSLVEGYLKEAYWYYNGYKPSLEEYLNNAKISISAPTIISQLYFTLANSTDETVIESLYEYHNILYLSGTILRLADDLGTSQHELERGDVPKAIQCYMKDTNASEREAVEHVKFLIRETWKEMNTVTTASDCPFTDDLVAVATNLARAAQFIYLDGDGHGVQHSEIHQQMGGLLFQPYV

[3] = target: T3, PtPinS (Pinus taeda, UniProt Q84KL3); assay: GC-MS product analysis in vitro; format: biochemical; conditions: 20 mM MOPS pH 7.0, 20 mM MgCl2, 0.02 mM MnCl2, 30 °C, 1 h
T3 construct: gene PT30; lacking the transit peptide, 6xHis-tagged, E. coli BL21(DE3), Ni-NTA purified
T3 sequence (Q84KL3 49-628): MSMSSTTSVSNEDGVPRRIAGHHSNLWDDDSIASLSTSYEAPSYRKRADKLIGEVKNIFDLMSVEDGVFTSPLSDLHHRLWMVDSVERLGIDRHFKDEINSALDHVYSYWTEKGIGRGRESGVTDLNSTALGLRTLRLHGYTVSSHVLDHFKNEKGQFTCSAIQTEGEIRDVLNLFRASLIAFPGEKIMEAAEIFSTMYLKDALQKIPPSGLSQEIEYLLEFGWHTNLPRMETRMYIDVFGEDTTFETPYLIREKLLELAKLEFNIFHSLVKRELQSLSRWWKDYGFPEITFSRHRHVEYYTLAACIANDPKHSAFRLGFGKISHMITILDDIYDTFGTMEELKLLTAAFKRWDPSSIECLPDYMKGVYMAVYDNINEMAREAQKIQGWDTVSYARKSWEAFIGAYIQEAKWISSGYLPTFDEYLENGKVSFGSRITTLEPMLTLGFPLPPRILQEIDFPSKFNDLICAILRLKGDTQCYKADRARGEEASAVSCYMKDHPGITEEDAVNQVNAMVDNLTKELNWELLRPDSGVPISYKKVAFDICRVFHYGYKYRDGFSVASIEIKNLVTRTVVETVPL

Structure (SMILES)	Km [1] [µM]	GC-MS product analysis in vitro [2]	GC-MS product analysis in vitro [3]
CC(C)=CCC/C(C)=C/COP(=O)(O)OP(=O)(O)O [GPP]	18.6 ± 2.77	–	–
CC(C)=CCC/C(C)=C\COP(=O)(O)OP(=O)(O)O [NPP]	107 ± 12.5	able to utilize NPP in in vitro assays with bacterially expressed enzymes	able to utilize NPP in in vitro assays with bacterially expressed enzymes
